Measurements reported in ChEMBL document CHEMBL2331316, “Highly potent and selective cannabinoid receptor 2 agonists: initial hit optimization of an adamantyl hit series identified from high-through-put screening” (Bioorg Med Chem Lett, 2013).
Converted amounts (≈) assume the structure as drawn.

Experiments:
[1] = biological target: T1, Cannabinoid receptor 1 (Homo sapiens, UniProt P21554); test: Agonist activity at human CB1 receptor by cAMP read-out assay; type: functional
[2] = biological target: T2, Cannabinoid receptor 2 (Homo sapiens, UniProt P34972); test: Agonist activity at human CB2 receptor by beta-arrestin recruitment assay
T2 sequence (P34972 whole entry): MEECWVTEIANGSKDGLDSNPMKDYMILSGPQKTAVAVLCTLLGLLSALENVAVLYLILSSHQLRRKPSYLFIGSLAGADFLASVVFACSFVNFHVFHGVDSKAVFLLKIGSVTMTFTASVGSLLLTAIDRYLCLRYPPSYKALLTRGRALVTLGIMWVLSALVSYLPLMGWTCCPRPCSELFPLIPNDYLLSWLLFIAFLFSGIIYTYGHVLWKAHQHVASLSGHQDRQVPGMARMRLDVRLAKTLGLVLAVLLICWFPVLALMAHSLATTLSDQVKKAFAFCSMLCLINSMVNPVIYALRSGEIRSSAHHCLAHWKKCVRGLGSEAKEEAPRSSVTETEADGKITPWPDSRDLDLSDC

[3] = biological target: T2, Cannabinoid receptor 2; test: Agonist activity at human CB2 receptor by cAMP read-out assay; type: functional
[4] = biological target: T1, Cannabinoid receptor 1; test: Binding affinity to CB1 receptor (unknown origin)
[5] = biological target: T2, Cannabinoid receptor 2; test: Binding affinity to CB2 receptor (unknown origin)
[6] = Metabolic stability in human microsomes assessed as maximal achievable bioavailability; type: ADME, Microsome; conditions: read-out: Stability
[7] = Permeability, Pe of the compound assessed as drug accumulation; type: ADME; conditions: not told; read-out: permeability
[8] = Permeability, Pe of the compound; type: ADME; conditions: not told; read-out: permeability
[9] = Lipophilicity, log D of the compound; type: physicochemical; conditions: octanol/water
[10] = Solubility, of the compound by LYSA assay; type: physicochemical
[11] = biological target: Cannabinoid receptor 1 (Mus musculus, UniProt P47746); test: Agonist activity at mouse CB1 receptor by cAMP read-out assay; type: functional
Chain of Cannabinoid receptor 1 (Mus musculus, UniProt P47746) (P47746 whole entry): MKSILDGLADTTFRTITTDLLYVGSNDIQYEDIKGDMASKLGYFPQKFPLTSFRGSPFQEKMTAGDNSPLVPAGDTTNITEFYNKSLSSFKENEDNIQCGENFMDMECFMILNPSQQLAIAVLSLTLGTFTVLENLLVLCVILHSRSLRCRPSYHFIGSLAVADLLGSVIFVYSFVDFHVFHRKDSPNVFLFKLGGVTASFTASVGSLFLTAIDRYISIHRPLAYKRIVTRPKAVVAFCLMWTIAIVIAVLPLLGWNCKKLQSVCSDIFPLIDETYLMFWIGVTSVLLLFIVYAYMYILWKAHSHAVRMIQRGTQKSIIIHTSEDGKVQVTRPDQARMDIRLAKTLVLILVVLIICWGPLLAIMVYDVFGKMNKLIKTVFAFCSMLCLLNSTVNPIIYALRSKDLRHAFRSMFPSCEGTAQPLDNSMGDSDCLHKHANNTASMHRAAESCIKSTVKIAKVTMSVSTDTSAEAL

[12] = biological target: T3, Cannabinoid receptor 2 (Mus musculus, UniProt P47936); test: Binding affinity to mouse CB2 receptor
T3 sequence (P47936 whole entry): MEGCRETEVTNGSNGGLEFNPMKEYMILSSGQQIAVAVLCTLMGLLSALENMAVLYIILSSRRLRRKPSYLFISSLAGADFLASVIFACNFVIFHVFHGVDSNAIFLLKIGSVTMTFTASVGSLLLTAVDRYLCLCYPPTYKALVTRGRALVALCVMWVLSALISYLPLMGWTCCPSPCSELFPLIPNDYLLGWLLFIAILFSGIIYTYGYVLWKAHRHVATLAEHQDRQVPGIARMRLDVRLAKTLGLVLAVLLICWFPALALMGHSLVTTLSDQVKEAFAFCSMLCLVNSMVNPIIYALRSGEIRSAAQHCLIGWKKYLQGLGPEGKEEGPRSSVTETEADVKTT

[13] = biological target: T2, Cannabinoid receptor 2; test: Binding affinity to human CB2 receptor
[14] = biological target: Cannabinoid receptor 2 (Homo sapiens, UniProt P34972, Q63R); test: Agonist activity at human CB2 receptor Q63R mutant
Chain of Cannabinoid receptor 2 (Homo sapiens, UniProt P34972, Q63R) (P34972 whole entry Q63R): as the sequence (P34972 whole entry) above, with Q63R counted along it

[15] = biological target: T3, Cannabinoid receptor 2; test: Agonist activity at mouse CB2 receptor by cAMP read-out assay; type: functional

T1 sequence (P21554 whole entry): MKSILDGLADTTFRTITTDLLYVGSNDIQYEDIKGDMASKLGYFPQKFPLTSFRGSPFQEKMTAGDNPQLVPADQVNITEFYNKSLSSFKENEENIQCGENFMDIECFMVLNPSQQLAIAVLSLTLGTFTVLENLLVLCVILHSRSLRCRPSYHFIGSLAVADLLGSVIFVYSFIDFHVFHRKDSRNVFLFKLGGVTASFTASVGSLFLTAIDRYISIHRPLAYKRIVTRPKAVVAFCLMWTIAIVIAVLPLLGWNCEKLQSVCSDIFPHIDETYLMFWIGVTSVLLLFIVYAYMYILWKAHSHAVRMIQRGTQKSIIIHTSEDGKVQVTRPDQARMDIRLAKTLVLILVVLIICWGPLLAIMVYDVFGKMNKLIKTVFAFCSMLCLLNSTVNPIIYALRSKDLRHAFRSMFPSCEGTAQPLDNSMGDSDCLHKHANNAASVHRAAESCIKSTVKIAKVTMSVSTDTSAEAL

| Compound | EC50 [1] | EC50 [2] | EC50 [3] | Ki [4] | Ki [5] | Fh [6] | Papp [7] | Papp [8] | logD [9] | solubility [10] | EC50 [11] | Ki [12] | Ki [13] | EC50 [14] | EC50 [15] |
| --- | --- | --- | --- | --- | --- | --- | --- | --- | --- | --- | --- | --- | --- | --- | --- |
| O=C(NC(=S)N1CCCCC1)C12CC3CC(CC(C3)C1)C2 | > 10 µM | 0.5 µM | 1.4 µM |  |  |  |  |  |  |  |  |  |  |  |  |
| Cc1csc(NC(=O)C23CC4CC(CC(C4)C2)C3)n1 | > 10 µM | 0.9 µM | 0.6 µM |  |  |  |  |  |  |  |  |  |  |  |  |
| CCOc1ccc(NC(=O)C23CC4CC(CC(C4)C2)C3)cc1 | > 10 µM |  | 1.2 µM |  |  |  |  |  |  |  |  |  |  |  |  |
| CC(=O)c1ccccc1NC(=O)C12CC3CC(CC(C3)C1)C2 | > 10 µM |  | 0.1 µM |  |  |  |  |  |  |  |  |  |  |  |  |
| CCOC(=O)c1ccccc1NC(=O)C12CC3CC(CC(C3)C1)C2 | > 10 µM | 0.076 µM | 0.015 µM |  |  |  |  |  |  |  |  |  |  |  |  |
| COC(=O)c1cccc(NC(=O)C23CC4CC(CC(C4)C2)C3)c1 | > 10 µM |  | > 10 µM |  |  |  |  |  |  |  |  |  |  |  |  |
| O=C(NC12CC3CC(CC(C3)C1)C2)c1nn(CCN2CCOCC2)c2ccccc12 |  |  |  | 0.0068 µM | 0.00015 µM |  |  |  |  |  |  |  |  |  |  |
| COC1CCN(C(=O)C23CC4CC(CC(C4)C2)C3)c2ccccc21 (stereo not given) | > 10 µM | 1.3 µM |  |  |  | 12% | 46 nm/s | 33 nm/s | 3.79 | 10 µg/mL (≈ 30.7 µM) | > 10 µM | 5.2 µM | 0.77 µM | 0.078 µM | 0.023 µM |
| CCOC1CCN(C(=O)C23CC4CC(CC(C4)C2)C3)c2ccccc21 (stereo not given) | > 10 µM |  | 0.0018 µM |  |  | 6% | 9 nm/s | 7 nm/s | 4.09 | 17 µg/mL (≈ 50.1 µM) | 5 µM | > 10 µM | 0.99 µM |  | 0.028 µM |
| COCCOC1CCN(C(=O)C23CC4CC(CC(C4)C2)C3)c2ccccc21 (stereo not given) | > 10 µM | 0.9 µM | 0.02 µM |  |  | 5% | 57 nm/s | 44 nm/s | 3.82 | 97 µg/mL (≈ 263 µM) | > 10 µM | 1.5 µM | 0.35 µM | 0.024 µM | 0.02 µM |
| CN1CCN(C(=O)C23CC4CC(CC(C4)C2)C3)c2ccccc21 | > 10 µM | > 10 µM | 0.029 µM |  |  | 10% |  |  | 4.09 | < 1 µg/mL | > 10 µM | 2.8 µM | 0.5 µM | 0.071 µM | 0.022 µM |
| O=C(N1CCc2ccccc21)C12CC3CC(CC(C3)C1)C2 | > 10 µM | 0.22 µM |  |  |  | 45% | 20 nm/s | 4 nm/s |  | < 1 µg/mL | > 10 µM | > 10 µM | 0.46 µM |  | 0.026 µM |
| O=C(N1Cc2ccccc2C1)C12CC3CC(CC(C3)C1)C2 | > 10 µM | 0.6 µM |  |  |  | 51% | 140 nm/s | 5 nm/s |  | < 1 µg/mL | > 10 µM | 0.9 µM | 0.5 µM |  | 0.007 µM |
| O=C(N1CCCCc2ccccc21)C12CC3CC(CC(C3)C1)C2 |  |  | > 10 µM |  |  |  |  |  |  |  |  |  |  |  | > 10 µM |
| CC1(C)CN(C(=O)C23CC4CC(CC(C4)C2)C3)c2ccccc21 | > 10 µM | 0.9 µM | 0.016 µM |  |  | 39% |  |  |  | < 1 µg/mL | > 10 µM | 4.9 µM | 0.5 µM | 0.036 µM | 0.04 µM |
| Cc1cccc2c1CCN2C(=O)C12CC3CC(CC(C3)C1)C2 | > 10 µM | 0.29 µM | 0.004 µM |  |  | 46% |  |  |  | < 1 µg/mL | > 10 µM | 1.3 µM | 0.17 µM | 0.011 µM | 0.007 µM |
| O=C(N1CCc2cc(F)ccc21)C12CC3CC(CC(C3)C1)C2 | > 10 µM | 0.2 µM |  |  |  | 52% | 47 nm/s | 23 nm/s |  | < 1 µg/mL | > 6 µM | 2.4 µM | 0.2 µM |  | 0.009 µM |
| O=C(N1CCc2ccc(C(F)(F)F)cc21)C12CC3CC(CC(C3)C1)C2 | > 10 µM | 0.75 µM | 0.015 µM |  |  | 36% |  |  |  | < 1 µg/mL | > 10 µM | 2.8 µM | 2.5 µM | 0.049 µM | 0.0029 µM |
| Cc1cccc2c1N(C(=O)C13CC4CC(CC(C4)C1)C3)CC2 | > 10 µM | 1.6 µM | 0.055 µM |  |  | 51% |  |  |  | < 1 µg/mL | > 10 µM | > 10 µM | 0.6 µM | 0.081 µM | 0.05 µM |
| O=C(NC12CC3CC(CC(C3)C1)C2)N1Cc2ccccc2C1 | > 10 µM | 0.7 µM |  |  |  | 37% | 260 nm/s | 120 nm/s | 4.26 | < 1 µg/mL | > 10 µM | 0.4 µM | 0.27 µM | 0.027 µM | 0.019 µM |
| O=C(N1CCc2ccccc21)C12CC3CC(CC1C3)C2 | > 10 µM | 0.9 µM | 0.022 µM |  |  | 55% | 5 nm/s | 19 nm/s | 3.7 | < 1 µg/mL | > 10 µM | > 10 µM | 0.5 µM |  | 0.051 µM |
| O=C(C1C2CC3CC(C2)CC1C3)N1CCc2ccccc21 (stereo not given) | > 10 µM | 0.16 µM | 0.007 µM |  |  | 37% | 50 nm/s | 1 nm/s |  | < 1 µg/mL | > 10 µM | 2.2 µM | 0.32 µM | 0.011 µM | 0.02 µM |
| O=C(N1CCc2ccccc21)C12CC3CC(CC(O)(C3)C1)C2 | > 10 µM | 2.6 µM |  |  |  | 90% | 250 nm/s | 103 nm/s | 2.77 | > 318 µg/mL |  |  |  | 0.531 µM | 1 µM |
| O=C(N1CCCc2ccccc21)C12CC3CC(CC(C3)C1)C2 | > 10 µM | > 10 µM |  |  |  | 23% |  |  |  | < 1 µg/mL | > 10 µM | 4.3 µM | 0.79 µM | 0.055 µM | 0.126 µM |
